Data as given in publication PMC548150, “Reversal of a full-length mutant huntingtin neuronal cell phenotype by chemical inhibitors of polyglutamine-mediated aggregation” (BMC Neuroscience, 2005).
“And” between values parts separate entries of the source, which are not always exact repeats. Equal values may be shown once. “Also recorded” adds a separate entry of the source. Read-outs that look alike come from different tables or passages of the source.

Key:
[1] = target: T1, Q58-htn 1–171 amino terminal fragment (GST-Q58-Htn cleaved by thrombin) (Homo sapiens, UniProt P42858, INS38QQQQQQQQQQQQQQQQQQQQQQQQQQQQQQQQQQQQQ); experiment: in vitro aggregation of amino-terminal mutant huntingtin fragment (filter retardation dot blot); type: biochemical
T1 construct: the amino terminal fragment 1–171 of mutant huntingtin; GST (N, cleaved yes); made in house; host or cells: E. coli BL21 (pGEX-2TK vector)
Protocol: In our primary screen (Figure 1A), GST-Q58-Htn (20 μg/ml) was mixed with thrombin (0.5 unit/μg GST-Q58-Htn) and immediately dispensed into a 96-well PCR plate containing compounds diluted to a final concentration of 100 μM. Incubation was continued for 24 hours at room temperature to allow aggregate formation. The aggregation was stopped by 2% SDS/10 mM 2-mercaptoethanol followed by boiling for 5 minutes. The mixture was filtered through a cellulose acetate membrane by using a 96-well ELIFA dot blot apparatus. The aggregates retained on the membrane were detected and quantified by immunoblotting and subsequent image analysis. Congo Red, a known huntingtin aggregation inhibitor, was used as the positive control.
A recombinant pGEX-2TK expression vector with cDNA fragment encoding amino terminal 171 amino acids of human huntingtin with a polyglutamine tract of 58 was used to prepare the GST-Q58-htn fusion protein. The GST-Q58-htn was overexpressed in BL21 cells and purified by affinity chromatography over glutathione-sepharose 4B beads (Amersham Pharmacia Biotech). The purified proteins were stored at concentration of 2.0 mg/ml at -80°C.
For primary screening of the chemical library, 1 μl of 4.0 mM small compound stock, diluted from the original plates, was placed in wells of 96-well plates. The fusion protein, GST-Q58-Htn was mixed with thrombin (0.5 unit/1 μg protein) at a concentration of 20 μg/ml in a buffer of 50 mM Tris-HCl, pH 8.0, 100 mM NaCl, 2.5 mM CaCl2, 1.0 mM EDTA. The mixture was immediately distributed into the 96-well plates containing diluted compounds at 40 μl/well and mixed well. The final concentration of the small compounds was 100 μM. After 24 hours incubation at room temperature, the reaction was stopped by adding 10 μl of 10% SDS/50 mM 2-mercaptoethanol to each well followed by boiling in a PCR machine for 5 minutes. The mixture from each well was filtered through a cellulose acetate membrane ((0.2 μm, GE Osmonics labstore, Minnetonka MN) by using a 96-well ELIFA (Pierce Biotech). The aggregates retained on the membrane were detected by a specific anti-huntingtin antibody, HP1 (diluted 1:1000), followed by incubation with peroxidase conjugated anti-rabbit antibody (diluted 1:10,000, Sigma). Signals from SDS insoluble aggregates were scanned and quantified by using ImageMaster Totalab image analysis software (Amersham Pharmacia Biotech). In the secondary screening, all steps were the same except the final concentration of compound in each well was reduced to 10 μM and the GST-Q58-Htn/thrombin mixture was preincubated for 45-minutes at room temperature and clarified by centrifugation at 28,000 × g for 30 minutes before being added to the test wells. For IC50 determinations, the in vitro aggregation assay and signal quantification were performed as in the second screening but varying the final concentration of input drug. The data for each inhibitor were obtained from at least two independent experiments in which every sample was analyzed in triplicate with Prism 3.0 software (Graphpad Software, Inc., San Diego, CA).

[2] = tested on: ST111/111 striatal cells (Hdh^Q111/Q111, full-length mutant huntingtin); experiment: striatal cell line assay: huntingtin localization phenotype (AP229 immunostaining, confocal); type: cell-based, mouse; conditions: for Percentage of ST111/111 cells showing cytoplasmic/nuclear huntingtin localization comparable to wild-type ST7/7 cells: 30 min at 33°C, mean ± SD of 5–10 fields; for reversal of the mutant huntingtin localization phenotype (in words): 0.5–50 μM tested
Description: To test the hypothesis that compounds, which inhibit the aggregation-promoting property of amino-terminal mutant huntingtin will also rescue effects of full-length mutant huntingtin, we tested the top six inhibitors in a striatal cell-based assay. Mutant Hdh^Q111/Q111 and wild-type Hdh^Q7/Q7 striatal cell lines, […], which have been prepared by transformation with a tsSV40 vector, can be propagated in culture and used for cytological and biochemical comparisons. These cells express full-length mutant or wild-type huntingtin, respectively, with no evidence of truncated amino-terminal fragments, no formation of polyglutamine aggregates and no cell death-producing toxicity. However, like the striatal neurons of Hdh^Q111/Q111 knock-in mice, the ST111/111 cells show nuclear staining of huntingtin when tested with an amino-terminal huntingtin antibody that is sensitive to the conformation of the full-length protein (Figure 5A). By contrast, ST7/7 cells expressing wild type huntingtin show both nuclear and cytoplasmic immunostaining with the same huntingtin antibody (Figure 5A).
Conditionally immortalized wild-type Hdh^Q7/Q7 striatal neuronal progenitor cells (ST7/7) expressing endogenous normal huntingtin, and homozygous Hdh^Q111/Q111 striatal neuronal progenitor cells (ST111/111), expressing endogenous mutant huntingtin with 111-glutamines, have been described previously. The striatal cell lines were grown at 33°C in Dulbecco's modified Eagle's medium (DMEM) supplemented with 10 % fetal bovine serum (FBS), 1% nonessential aminoacids, 2 mM L-glutamine and 400 μg/ml G418 (Geneticin (GIBCO-BRL, Life Technologies, Gaithersburg, MD).
(§1) In the immunofluorescence and confocal analysis experiment, wild-type ST7/7 and homozygous mutant ST111/111 cells, grown to confluence on glass coverslips, were treated with 6 different drugs at four different concentrations (0.5, 5, 10 or 50 μM) for 30 min at 33°C. After the treatment the drugs were removed and the cells washed twice in PBS. The cells were then fixed by incubation in 4% formaldehyde for 15 min, permeabilized by 0.1% Triton X-100 for 5 min and incubated for 30 min with blocking solution (1% bovine albumin in PBS). Coverslips were then incubated in primary antibody (AP229 1:500 dilution) for 2 h at room temperature and washed three times in PBS before a further 1 h in blocking solution containing the secondary antibody (goat anti-rabbit Cy3, Jackson ImmunoResearch, West Grove, PA. USA). After three washes in PBS coverslips were mounted onto glass slides with Vectashield (Burlingame, CA. USA) and the images were analyzed with a laser confocal microscope (Bio-Rad, Hercules, CA. USA) using 20 × objective. Cell death was quantified by scoring the percentage of cells with apoptotic nuclear morphology, i.e. condensed or fragmented nuclei, under the confocal microscope. In each case five to ten randomly selected fields were counted, comprising at least 200 cells, and each experiment was repeated 3 times.

[3] = tested on: HEK 293T cells expressing androgen receptor with 112 glutamines; conditions: cited from earlier work
ST111/111 striatal cells = type: cell-based; conditions: for percentage of dead cells: mouse, 30 min
Protocol: as §1, with “After” for “In the immunofluorescence and confocal analysis experiment, wild-type ST7/7 and homozygous mutant ST111/111 cells, grown to confluence on glass coverslips, were treated with 6 different drugs at four different concentrations (0.5, 5, 10 or 50 μM) for 30 min at 33°C. After”

[4] = tested on: hippocampal slice cultures from the R6/2 mouse; parameters: method as in PMID 12891671; conditions: 30 μM; cited from earlier work
[5] = GST-Q58-Htn 20 μg/ml pre-incubated with thrombin, 24 h room temperature, average of at least two independent experiments, read-out: IC50 (half-maximal inhibition) of Q58-Htn aggregation

T1 sequence (P42858 with tags, fused parts or gaps with the stated changes limits assumed): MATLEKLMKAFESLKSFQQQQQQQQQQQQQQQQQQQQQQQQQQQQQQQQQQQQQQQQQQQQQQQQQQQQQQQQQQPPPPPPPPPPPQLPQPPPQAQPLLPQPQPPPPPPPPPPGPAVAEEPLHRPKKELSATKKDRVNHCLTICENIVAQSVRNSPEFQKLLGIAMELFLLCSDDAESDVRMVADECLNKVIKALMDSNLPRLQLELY

Row | Compound | IC50 [1, 5] | Percentage of ST111/111 cells showing cytoplasmic/nuclear huntingtin localization comparable to wild-type ST7/7 cells ([2]; 0.5 μM) [%] | Percentage of ST111/111 cells showing cytoplasmic/nuclear huntingtin localization comparable to wild-type ST7/7 cells ([2]; 5 μM) [%] | Percentage of ST111/111 cells showing cytoplasmic/nuclear huntingtin localization comparable to wild-type ST7/7 cells ([2]; 10 μM) | reversal of the mutant huntingtin localization phenotype (in words) [2] | further results
1 | O=C1c2c(O)cccc2Cc2cccc(O)c21 [Anthralin] | < 15 µM and 10.5 µM | 4.6 ± 7.6 | 6.6 ± 9.7 | 9.6 ± 12.1% | little effect; also recorded: not effective | Percentage of ST111/111 cells showing cytoplasmic/nuclear huntingtin localization comparable to wild-type ST7/7 cells ([2]; 50 μM): 11.8 ± 14.4%
2 | Nc1c(/N=N/c2ccc(-c3ccc(/N=N/c4cc(S(=O)(=O)O)c5ccccc5c4N)cc3)cc2)cc(S(=O)(=O)O)c2ccccc12 [Congo Red] | – | – | – | – | – | inhibition of Q58-Htn aggregation ([1]; 10 μM, positive control): completely inhibit
3 | CC(C)=CCC[C@]1(C)C=Cc2c(O)c3c(c(CC=C(C)C)c2O1)O[C@]12C(=C[C@@H]4C[C@H]1C(C)(C)O[C@@]2(C/C=C(/C)C(=O)O)C4=O)C3=O [Gambogic acid] | < 6 µM and < 15 µM and 0.87 µM | 1 ± 2.6 | 0 | – | not effective | residual aggregate formed ([1]; at the maximum concentration of the dose response (0.01 μM to 500 μM)): approximately 20%; effect on caspase 3 activation [3]: blocked caspase 3 activation; toxicity in the HEK 293T assay [3]: showed toxicity
4 | Cc1cc2c(C(C)C)c(O)c(O)c(C=O)c2c(O)c1-c1c(C)cc2c(C(C)C)c(O)c(O)c(C=O)c2c1O [Gossypol-acetic acid] | – | 0 | 4.5 ± 4.3 | 3.5 ± 3.5% | not effective | IC50 [1]: < 6 µM and < 15 µM and 0.65 µM; Percentage of ST111/111 cells showing cytoplasmic/nuclear huntingtin localization comparable to wild-type ST7/7 cells ([2]; 50 μM): 15.9 ± 11.1%; Percentage of ST111/111 cells showing cytoplasmic/nuclear huntingtin localization comparable to wild-type ST7/7 cells ([2]; 50 μM, listed as Gossypol acetic acid complex): 15%; reversal of the mutant huntingtin localization phenotype (in words) ([2]; listed as Gossypol acetic acid complex): less effective; cell toxicity (in words) (ST111/111 striatal cells; tested up to 50 μM): no toxicity
5 | O=C1C=CC(=O)c2c(O)cccc21 [Juglone] | < 6 µM and < 15 µM and 2.67 µM | 10.4 ± 12.4 | 37.9 ± 19.9 | 68% and 68.8 ± 18.4% | reversed the mutant phenotype in a dose-dependent manner; also recorded: effective | –
6 | C=C1c2c(Cl)ccc(O)c2C(=O)C2=C(O)[C@]3(O)C(=O)C(C(N)=O)=C(O)[C@@H](N(C)C)[C@@H]3[C@@H](O)[C@H]12 [Meclocycline sulfosalicylate] | 14.8 µM | – | – | – | – | –
7 | N=C1C=CC(=C(c2ccc(N)cc2)c2ccc(N)cc2)C=C1 [Pararosaniline pamoate] | 14.9 µM | – | – | – | – | –
8 | C[n+]1cc2c3c(ccc2c2ccc4cc5c(cc4c21)OCO5)OCO3 [Sanguinarine nitrate] | < 6 µM and < 15 µM and 5.7 µM | 0 | 3.7 ± 5.2 | 0% | little effect | reversal of the mutant huntingtin localization phenotype (in words) ([2]; listed as sanguinarine): not effective; percentage of dead cells (ST111/111 striatal cells; 0.5 μM): 4.3%; percentage of dead cells (ST111/111 striatal cells; 5 μM): 5.5%; percentage of dead cells (ST111/111 striatal cells; 10 μM): 22.5%; effect on caspase 3 activation [3]: blocked caspase 3 activation
9 | CO[C@H]1C[C@H](O[C@@H]2/C(C)=C/C[C@@H]3C[C@@H](C[C@]4(CC[C@H](C)[C@@H](C5CCCCC5)O4)O3)OC(=O)[C@@H]3C=C(C)/C(=N/O)[C@H]4OC/C(=C\C=C\[C@@H]2C)[C@]43O)O[C@@H](C)[C@@H]1O [Selamectin] | – | – | – | – | – | IC50 [1]: 12.4 µM
10 | CN(C)c1ccc(O)c2c1C[C@H]1C[C@H]3[C@H](N(C)C)C(O)=C(C(N)=O)C(=O)[C@@]3(O)C(O)=C1C2=O [minocycline] | 43 µM | – | – | – | – | effect on huntingtin exon 1 aggregation [4]: inhibitory effect
11 | Tyrothricin | 14.7 µM | – | – | – | – | effect on caspase 3 activation [3]: blocked caspase 3 activation; toxicity in the HEK 293T assay [3]: showed toxicity
